Experimental data published in US20160228452A1, “TREATMENT OF METABOLIC DISEASES BY INHIBTION OF HTR2A OR HTR3” (Korea Advanced Institute of Science and Technology, priority 2014, published 2016).

What was measured:
[1] = reference 18; cited from earlier work
[2] = Glucose tolerance test and insulin tolerance test; format: in vivo, mice; settings: LP-533401 30 mg/kg orally, 10 weeks, HFD-fed mice vs HFD-fed control
Protocol: For the glucose tolerance tests, the mice were administered 2 g/kg D-glucose in PBS after overnight fasting. For the insulin tolerance tests, the mice were intraperitoneally injected with insulin (0.75 U/kg) after being fasted for 4 h. The blood glucose levels in blood samples obtained from tail veins 0, 15, 30, 45, 60, 90 and 120 min after injection were measured using a Gluco DR Plus glucometer (Allmedicus).

[3] = High-fat-diet-induced obesity in mice: growth curves, body weight and eWAT mass; format: in vivo; settings: LP-533401 30 mg/kg orally daily, 10 weeks, SCD or HFD
From the text: The generation of Tph^flox/flox mice, Adipoq-cre mice, and aP2-CreERT2 mice has previously been reported^17,30,31. C57BL/6J mice, Htr3a-targeted KO mice (B6.129X1-Htr3a^tm1jul/J, Htr3a KO) and leptin-deficient ob/ob mice (B6.V-Lep^ob/J) were purchased from the Jackson Laboratory (Bar Harbor, Me., USA). To create the adipose tissue-specific Tph1 KO mice, Tph1^flox/flox mice were crossed with Adipoq-Cre mice (Tph1 FKO mice) and aP2-CreERT2 mice (Tph1 AFKO mice). The mice were housed in climate-controlled, specific pathogen-free (SPF) barrier facilities under a 12-h light-dark cycle, and chow and water were provided ad libitum. The Institutional Animal Care and Use Committee at the Korea Advanced Institute of Science and Technology approved the experimental protocols for this study. Htr3a KO mice and Tph1^flox/flox mice were backcrossed with C57BL/6J mice for more than 10 generations. Cre-recombination of 6-week-old Tph1 AFKO mice was induced by intraperitoneal (IP) injection of 5 doses of 2 mg of tamoxifen (Sigma) for 1 week. We fed male mice (aged 8˜10 weeks) either on SCD (standard chow diet; 12% fat calories, Purina Laboratory Rodent Diets 38057) or HFD (60% fat calories, Research Diets D12492). PBS or 300 mg/kg PCPA was administered as a daily intraperitoneal injection. LP-533401 was dissolved in PEG-400 and 5% dextrose (40:60 ratio). Vehicle or 30 mg/kg LP-533401 was administered daily with a feeding needle. We randomly divided C57BL/6J mice into 2-4 groups. For transgenic mice, we compared data between KO mice and their WT littermates. No blinding was done.

[4] = molecular target: T1, Htr3 (Mus musculus, UniProt P23979); experiment: cAMP assay (competitive ELISA) in immortalized brown adipocytes; format: cell-based; settings: IBAs, 1 uM ondansetron or 100 nM m-CPBG, 15 min
T1 construct: we explored the direct actions of Htr3 on BAT using immortalized brown adipocytes (IBAs); endogenous in cells; host or cells: differentiated immortalized brown adipocytes (IBAs)
T1 sequence (P23979 24-489): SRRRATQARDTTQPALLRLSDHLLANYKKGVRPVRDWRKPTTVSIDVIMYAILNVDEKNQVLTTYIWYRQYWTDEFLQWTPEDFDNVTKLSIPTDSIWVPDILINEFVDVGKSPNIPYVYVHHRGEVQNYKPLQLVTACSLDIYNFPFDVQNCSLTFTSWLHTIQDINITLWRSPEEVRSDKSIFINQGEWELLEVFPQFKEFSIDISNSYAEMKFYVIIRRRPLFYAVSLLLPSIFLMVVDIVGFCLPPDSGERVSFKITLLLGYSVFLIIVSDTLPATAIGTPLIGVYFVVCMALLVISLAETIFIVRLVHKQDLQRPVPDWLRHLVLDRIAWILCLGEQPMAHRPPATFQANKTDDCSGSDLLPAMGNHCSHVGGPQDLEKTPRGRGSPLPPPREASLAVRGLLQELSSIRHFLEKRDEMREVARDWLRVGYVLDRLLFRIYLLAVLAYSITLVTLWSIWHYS
T1 sequence (Q9JHJ5 22-437 partner): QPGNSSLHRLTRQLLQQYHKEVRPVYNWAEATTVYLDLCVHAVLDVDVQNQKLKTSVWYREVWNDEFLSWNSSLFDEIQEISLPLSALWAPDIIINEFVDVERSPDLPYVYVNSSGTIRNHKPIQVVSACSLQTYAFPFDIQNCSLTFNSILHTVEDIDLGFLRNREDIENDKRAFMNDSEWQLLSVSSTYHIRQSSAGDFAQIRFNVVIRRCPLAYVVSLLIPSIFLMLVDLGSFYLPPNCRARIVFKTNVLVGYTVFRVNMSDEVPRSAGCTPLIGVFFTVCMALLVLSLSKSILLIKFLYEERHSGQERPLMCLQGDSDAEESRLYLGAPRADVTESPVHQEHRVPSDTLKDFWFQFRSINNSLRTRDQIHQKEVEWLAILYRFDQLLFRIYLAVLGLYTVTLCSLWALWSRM
Protocol: (§1) IBAs were cultured in DMEM supplemented with 10% FBS and P/S in a humidified atmosphere of 5% CO2 at 37° C.^32. After reaching 95% confluence, the cells were induced to differentiate using DMEM with 10% FBS, 0.5 μg/mL insulin, 1 nM T3, 0.125 mM indomethacin, 2 μg/mL dexamethasone, 0.5 μM IBMX and P/S (day 0). After two days, the medium was replaced with DMEM supplemented with 10% FBS, 0.5 μg/mL insulin, 1 nM T3 and P/S (day 2), and it was changed every two days from days 4 to 8. We confirmed that these cell lines are free from Mycoplasma infection.
Differentiated IBAs were treated with 1 uM ondansetron or 100 nM m-CPBG or 1 uM CL-316243 for 15 min. 1 uM […] was used as a positive control. The cAMP competitive ELISA (Promega) was performed according to the manufacturer's instruction. Briefly, cAMP was extracted by adding 0.1 M HCl with 0.5% triton X-100 to the cells. After centrifugation at 600 g for 10 min, the supernatant was used for the determination of cAMP levels by competitive cAMP ELISA.

[5] = molecular target: T1, Htr3; experiment: Western blot for phosphorylation of PKA pathway components in IBAs; format: cell-based; settings: IBAs, Htr3 agonist treatment
Protocol: as §1
Whole-cell lysates were extracted by incubating cells in RIPA buffer (25 mM Tris-HCl pH 7.6, 150 mM NaCl, 1% NP-40, 1% sodium deoxycholate, 0.1% SDS) plus protease inhibitors (Roche). Supernatant was collected following a brief centrifuge, and protein concentrations in the supernatant were determined using the BCA Protein Assay Kit (Thermo Scientific, Rockford, Ill., USA). The cell lysates were then mixed with equal volumes of 2× Laemmli buffer (4% SDS, 20% glycerol, 10% 2-mercaptoethanol, 0.01% bromophenol blue, and 120 mM Tris-HCl, pH 6.8) and boiled for 5 min at 95° C. Then, the protein samples were separated by SDS-PAGE and transferred to a PVDF membrane (Millipore). […]

[6] = molecular target: T1, Htr3; experiment: Real-time PCR of thermogenic genes in IBAs; format: cell-based; settings: 2 h after Htr3 agonist treatment
Protocol: as §1
Total RNA was extracted from the mouse tissues or cell lines using TRIzol reagent (Invitrogen) according to the manufacturer's protocol. After TURBO DNase (Invitrogen) treatment, 2 μg of total RNA was used to generate complementary DNA with Superscript III reverse transcriptase (Invitrogen). To analyze gene expression, real-time PCR was performed with a ViiA 7 Real-Time PCR system (Applied Biosystems) and the Power SYBR Green PCR master mix (Applied Biosystems). Relative quantification was based on the ddCt method, and ActB was used as an endogenous control (internal control).

Row | phosphorylation of HSL and PKA substrate [5] | Ucp1 mRNA level [6] | SMILES | crossing of the blood-brain barrier [1] | glucose tolerance (IPGTT) [2] | anti-obesity effects (growth curves) [3] | cAMP level in the absence of β3AR agonist [4]
1 | – | – | Nc1nc(OC(c2ccc(-c3cccc(F)c3)cc2)C(F)(F)F)cc(-c2ccc(C[C@H](N)C(=O)O)cc2)n1 (stereo partly drawn) [LP-533401] | cannot cross the blood-brain barrier | improved glucose tolerance | also observed | –
2 | decreased | decreased | N=C(N)NC(=N)Nc1cccc(Cl)c1 [m-CPBG, 1-(m-chlorophenyl)-biguanide] | – | – | – | did not affect cAMP levels
